Patent US8759579B2, “Cyclobutyl sulfones as notch sparing gamma secretase inhibitors” (Merck Sharp & Dohme Corp., priority 2008, dated 2014)
“Also recorded” adds a separate entry of the source.

What was measured:
γ-secretase complex = assay: Compound binding assay (displacement of tritiated γ-secretase inhibitor tracers); conditions: semi-purified γ-secretase complex, increasing concentrations
Procedure: Compound Binding: (Assay Quantitates In Vitro Displacement of Bound γ-Secretase Inhibitor Tracers)
All radioligand binding experiments are performed using CHAPSO-solubilized HEK293 (gammaNRCF8) P2 membranes stably over expressing recombinant gamma secretase. For radioligand binding, solubilized enzyme is incubated in the presence of tritiated inhibitors. Nonspecific binding is determined by adding an excess of unlabeled inhibitor to the reaction, and serial dilutions of the tritiated ligands are used to obtain saturation binding isotherm. Bound ligand is separated from free ligand by adsorption of the enzyme complex to polyethyleneimine-coated glass fiber filter plates and rapid filtration in a cell harvester followed by washing. After drying plates, scintillant is added, and the plates are read on a Microplate Scintillation counter. Binding competition assay is performed by incubating serial dilutions of various inhibitors in the presence of 1 nM ^3H-labeled compound Reference Example L-458 (transition state inhibitor) or 4 nM ^3H-labeled compound Reference Example L-881 (non-transition state inhibitor). To determine the antagonist competitiveness of various inhibitors, respective ^3H tracer doss-response curves are analyzed in presence of different concentrations of these compounds.

[1] = test system: APP and Notch processing pathway; conditions: literature report; cited from earlier work
[2] = test system: γ-secretase substrates NotchΔE, E-cadherin, SCN2b and CD43 in HEK293 cells; assay: Full length γ-secretase substrates, immunoblot of cell lysates; format: cell-based; conditions: titrated concentrations with TPA
Procedure: Assessing Full Length γ-Secretase Substrates (Assay Qualitatively Assesses the Processing of a Panel of γ-Secretase Substrates)
Cells are plated and treated overnight with titrated compound and the phorbol ester, TPA. Since all of the proteins undergo regulated membrane proteolysis characterized by an initial ectodomain shedding event followed by the intramembraneous cleavage of the […] fragment (CTF) by γ-secretase, TPA induces the initial cleavage event producing the substrate for γ-secretase. The effect of compounds on γ-secretase activity in relation to these substrates is measured by tracking the processing of the V5 tagged CTFs by Western blot analysis. Accumulation of the CTFs indicates inhibition of γ-secretase activity.

Tg2576 mouse = conditions: cited from earlier work
[3] = covalent protein binding assay with liver microsomes; format: in vitro ADME; conditions: radiolabeled compound incubated with human liver microsomes
Procedure: MRK-560 and Example 2 were tested in a covalent protein binding assay which is predictive of drug toxicity. The potential of drug candidates to cause covalent binding to proteins is evaluated by incubation of the radiolabeled version of the compound in question with liver microsomes. A semi-automated method based on Brandel Harvester technique is then used to measure the formation of covalent adducts of the test compound to liver proteins binding (Ref. Day et. al, J Pharmacol Toxicol Methods. 52, 278-85, 2005).

[4] = target: T1, pregnane X receptor (PXR) (Homo sapiens, UniProt O75469); assay: PXR assay (CYP3A4-SEAP transactivation assay, PCSTA); format: cell-based; conditions: HEP G2 cells
T1 construct: expressed in transfected cells; host or cells: HEP G2
T1 sequence (O75469 1-434): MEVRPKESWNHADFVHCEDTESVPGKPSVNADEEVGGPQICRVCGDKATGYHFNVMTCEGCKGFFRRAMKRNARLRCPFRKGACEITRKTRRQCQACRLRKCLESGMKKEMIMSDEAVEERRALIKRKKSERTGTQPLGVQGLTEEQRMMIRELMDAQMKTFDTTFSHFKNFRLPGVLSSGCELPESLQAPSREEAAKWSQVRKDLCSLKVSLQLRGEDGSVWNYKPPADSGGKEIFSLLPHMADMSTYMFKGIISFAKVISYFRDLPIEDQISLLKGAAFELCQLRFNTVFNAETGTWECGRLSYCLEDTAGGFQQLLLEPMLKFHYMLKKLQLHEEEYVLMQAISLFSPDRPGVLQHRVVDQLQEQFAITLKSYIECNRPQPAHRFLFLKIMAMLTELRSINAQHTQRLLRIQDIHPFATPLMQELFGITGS
T1 sequence (P19793 1-462 partner): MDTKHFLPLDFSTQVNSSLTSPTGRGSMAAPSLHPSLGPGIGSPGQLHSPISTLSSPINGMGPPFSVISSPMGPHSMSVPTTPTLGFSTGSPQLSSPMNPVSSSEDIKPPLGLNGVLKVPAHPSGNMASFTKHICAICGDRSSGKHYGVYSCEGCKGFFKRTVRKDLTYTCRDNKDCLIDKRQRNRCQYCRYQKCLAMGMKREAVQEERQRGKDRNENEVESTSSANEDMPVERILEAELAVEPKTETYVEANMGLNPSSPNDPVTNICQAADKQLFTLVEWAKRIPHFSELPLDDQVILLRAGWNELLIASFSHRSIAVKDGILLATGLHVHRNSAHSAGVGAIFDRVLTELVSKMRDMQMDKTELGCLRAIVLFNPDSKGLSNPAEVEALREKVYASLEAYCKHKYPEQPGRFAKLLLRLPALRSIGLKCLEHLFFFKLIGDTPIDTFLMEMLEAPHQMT
Excerpt: The CYP3A4-SEAP transactivation assay (PCSTA) effectively and rapidly evaluates compounds for their potential to induce cytochrome P450 CYP3A (human CYP3A4 or rat CYP3A1). The reporter construct contains regulatory regions from the CYP3A4 gene positioned just upstream of a secreted alkaline phosphatase (SEAP) gene. The human PXR nuclear receptor has been modified at the 5′-end so that methionine is the initiating amino acid replacing leucine found in the wild-type sequence. HEP G2 cells are transfected with the PXR plasmid (human or rat) and the reporter plasmid. Read-out for the induction of CYP3A4 consists of a SEAP calorimetric assay with para-nitro-phenyl phosphate (pNPP) as the substrate. Five point dose-response curves in duplicate are then generated with each point corresponding to the rate of conversion of pNPP to pNP by SEAP. For the human PCSTA, rifampicin is used as the positive control and 100% induction is based upon the maximum induction produced by rifampicin at 10 μM.

[5] = test system: ε/S3-site cleavage of γ-secretase substrates (APP-GVP, NotchΔE-GVP, E-cadherin-GVP, CD44-GVP); assay: ICD transactivation assay (intracellular domain release of γ-secretase substrates); format: cell-based; conditions: HEK cells, 1 μM, 48 hours
Excerpt: ICD Transactivation (Assay Quantitates Intracellular Domain Release of a Panel of γ-Secretase Substrates in Cell Lines)
A Firefly luciferase based transactivation assay is used to measure inhibition of ε/S3-site cleavage of γ-secretase substrates. This assay involves the use of chimeric substrates harboring a GAL4/VP16 (GVP) transactivation domain fused to the intracellular domain (ICD): APP-GVP, NotchΔE-GVP, E-cadherin-GVP and CD44-GVP. Upon cleavage and release of ICDs, the GVP domain drives the expression of the luciferase gene under the control of the UAS promoter. In this assay, HEK cells were transiently co-transfected with the chimeric substrate along with a UAS promoter driven luciferase and β-galactosidase (transfection control). Upon cleavage by γ-secretase, the released ICD-GVP translocates to the nucleus to drive the expression of the UAS-luciferase gene. The activity of luciferase in these cells is directly proportional to the amount of γ-secretase-cleaved ICDs. Luciferase activity is determined by the standard techniques of luciferin addition to lysed cells and measurement of total luminescence. In addition, to account for the differences in transfection efficiencies an absorbance based β-galactosidase enzyme assay is performed to normalize the luminescence read-out.

## O=S(=O)(NC1CCC(c2cc(F)ccc2F)(S(=O)(=O)c2ccc(Cl)cc2)CC1)C(F)(F)F (stereo not shown) [MRK-560]
γ-secretase complex
  displacement of tritiated tracer L-458 (transition state): partial
  displacement of tritiated tracer L-881 (non transition state): full
[1]
  separation between in vitro inhibition of APP and Notch processing pathway: little or no separation
[2]; HEK293 cells overexpressing E-cadherin, SCN2b, CD43
  accumulation of CTFs (immunoblot): caused accumulation of CTFs; also recorded: SCN2b-, ECAD- and CD43-CTF accumulation
[2]; HEK293 cells overexpressing NotchΔE
  NICD generation (immunoblot): inhibited NICD generation
Tg2576 mouse
  effects on amyloid plaque deposition: beneficial effects on amyloid plaque deposition
  toxicity related to changes in the Notch signaling pathway: absence of toxicity
[3]
  covalent protein binding (human microsomes): 1308 pmol/mg
[4]
  EC50: 617 nM
[5]
  ICD release of γ-secretase substrates (ε/S3-cleavage): inhibited ICD release of all examined substrates
